In brackets after ≈: the same amount, converted by molar mass. Like-named read-outs stand apart in the source and are kept apart here.

Here are results for 4 compounds from US4444754A, “Derivatives of clavulanic acid, a process for their preparation and their use” (Beecham Group Limited, priority 1978, dated 1984).

Data set [1] has as its system Staphylococcus aureus Smith. Nature of the data set: in-vivo anti-bacterial activity in mice with intraperitoneal Staphylococcus aureus Smith infection. The note with it: intraperitoneal S. aureus Smith; for ED50: Staphylococcus aureus, sc, sub-cutaneous dosing 1 and 5 hours post infection. As to the method:
(§1) When tested in mice suffering from an intraperitoneal infection of Staphylococcus aureus Smith, the following results where obtained with sub-cutaneous dosing 1 and 5 hours post infection: […]

The nature of data set [2]: overt drug induced toxicity in infected mice at the therapeutic dose. The format is in vivo. Conditions: sub-cutaneous. The protocol:
as §1

The test system of data set [3] is Staph. aureus 1517. Nature of the data set: MIC in DST agar containing 5% blood. The note with it: Staphylococcus aureus. It is filed as cell-based. The text has this: (§2) The following MIC values (μg/ml) for the compound of Example 2 were obtained in DST agar containing 5% blood: […]
Data set [4] deals with E. coli 0111. The data set is described as follows: MIC in DST agar containing 5% blood. It is filed as cell-based. Conditions: Escherichia coli.
Text: as §2

In data set [5] the test system is E. coli ESS. The data set is described as follows: MIC in DST agar containing 5% blood. It is filed as cell-based. The note with it: Escherichia coli.
Text: as §2

Data set [6] relates to Strep. faecalis I. Nature of the data set: MIC in DST agar containing 5% blood. The format is cell-based. Conditions: Enterococcus faecalis.
Text: as §2

Data set [7] deals with Staph. aureus Oxford. Nature of the data set: MIC in DST agar containing 5% blood. It is filed as cell-based. Conditions: Staphylococcus aureus.
Text: as §2

Data set [8] has as its system Strep. pneumoniae. The data set is described as follows: MIC in DST agar containing 5% blood. It is filed as cell-based. The note with it: Streptococcus pneumoniae.
Text: as §2

Data set [9] has as its system E. coli JT39 (R+). The data set is described as follows: MIC in DST agar containing 5% blood. The format is cell-based. Conditions: Escherichia coli.
Text: as §2

Data set [10] relates to Strep. pyogenes CN1O. The data set is described as follows: MIC in DST agar containing 5% blood. It is filed as cell-based. The note with it: Streptococcus pyogenes.
Text: as §2

Data set [11] relates to Kleb. aerogenes A. Nature of the data set: MIC in DST agar containing 5% blood. The format is cell-based. Conditions: Klebsiella aerogenes.
Text: as §2

Data set [12] deals with Prot. mirabilis C977. The data set is described as follows: MIC in DST agar containing 5% blood. It is filed as cell-based. Conditions: Proteus mirabilis.
Text: as §2

Data set [13] has as its system Staph. aureus Russell. Nature of the data set: MIC in DST agar containing 5% blood. It is filed as cell-based. The note with it: Staphylococcus aureus.
Text: as §2

Data set [14] concerns E. coli E96 (Rtem). Nature of the data set: in-vivo test in mice infected intraperitoneally with E. coli E96 (Rtem), amoxycillin synergy. The note with it: Escherichia coli, sc, read-out: CD50 of amoxycillin alone.
Data set [15] concerns Klebsiella aerogenes E70. Nature of the data set: in vitro MIC of ampicillin with and without the compound (synergy). Conditions: without the compound of Example 2, read-out: in vitro MIC of ampicillin alone. The format is cell-based.
The mark [16] stands for this setting: read-out: CD50 (the source's name).

On to `O=C(O)[C@H]1/C(=C/CO)O[C@@H]2CC(=O)N21` [Clavulanic acid sodium, reference compound], for which the ED50 is 12 to 27 mg/kg in data set [1] (range of results in various tests, read-out: CD50, range of results in various tests) and 13 mg/kg in [1] (setting [16]).
For `O=C(O)[C@H]1/C(=C/CN2CCc3ccccc3C2)O[C@@H]2CC(=O)N21` [Example 2, 9-N-(1,2,3,4-Tetrahydroisoquinolyl)deoxyclavulanic acid], the “overt drug induced toxicity” value in data set [2] is “No overt drug induced toxicity was observed”. In addition, the ED50 in data set [1] (setting [16]) came to 3.5 mg/kg. Also, in [1] (result in words), the anti-bacterial activity in-vivo entry was “good anti-bacterial activity in-vivo”. For the same compound, the MIC in data set [3] is 20 µg/mL (≈ 63.6 µM); in data set [4], 80 µg/mL (≈ 255 µM); in [5] it was 10 µg/mL (≈ 31.8 µM); in data set [6], 80 µg/mL (≈ 255 µM); in data set [7], not above 1.25 µg/mL; in data set [8], not above 1.25 µg/mL. Further, the MIC in data set [9] was 40 µg/mL (≈ 127 µM); in data set [10] it was not above 1.25 µg/mL; in data set [11], 20 µg/mL (≈ 63.6 µM); in data set [12] it was more than 80 µg/mL; in [13], not above 1.25 µg/mL.
Take `CC1(C)S[C@@H]2[C@H](NC(=O)[C@H](N)c3ccc(O)cc3)C(=O)N2[C@H]1C(=O)O` [amoxycillin]: the ED50 in [14] is more than 1000 mg/kg.
On to `CC1(C)S[C@@H]2[C@H](NC(=O)[C@H](N)c3ccccc3)C(=O)N2[C@H]1C(=O)O` [ampicillin], for which the MIC in data set [15] is 125 µg/mL.
